Drawing on ChEMBL document CHEMBL1136479, “DAPI derivative: a fluorescent DNA dye that can be covalently attached to biomolecules” (Bioorg Med Chem Lett, 2003), this text covers Fluorescence intensity and Enhancement for two compounds.

Several values for one entry are separate records, joined by “and”; a condition that tells them apart may be missing. Equal entries are not always repeated.

A short description of assay [1]: The background fluorescence was measured in TE buffer in the absence of DNA.
Assay [2] in a line: The background fluorescence was measured in TE buffer in the presence of calf thymus DNA (4 ug/mL) at a molar ratio of 2000:1 (Compound:DNA).
Assay [3] is described as follows: The background fluorescence was measured in TE buffer in the presence of calf thymus DNA (4 ug/mL) at a molar ratio of 4000:1 (Compound:DNA).
Assay [4] in a line: Enhancement in fluorescence intensity was calculated as fluorescence intensity in presence of DNA/fluorescence intensity in absence of DNA.
Assay [5] in a line: The background fluorescence was measured in TE buffer in the presence of calf thymus DNA (4 ug/mL) at a molar ratio of 8000:1 (Compound:DNA).
A short description of assay [6]: The background fluorescence was measured in TE buffer in the presence of calf thymus DNA (4 ug/mL) at a molar ratio of 1000:1 (Compound:DNA).

For the compound `N=C(N)c1ccc(-c2[nH]c3cc(C(=N)N)ccc3c2Cc2cc([N+](=O)[O-])ccc2O)cc1`, the Fluorescence intensity is 25.3 and 15.7 and 9.8 in assay [1]; 75 in assay [2]; 94.8 in assay [3]; 86.7 in assay [5]. For the same compound, in assay [4], the Enhancement is 3.4 and 6 and 7.7.
For `N=C(N)c1ccc(-c2cc3ccc(C(=N)N)cc3[nH]2)cc1`, the Fluorescence intensity in assay [6] was 179; in assay [2] it was 214; in assay [3], 236; in assay [5] it was 295.
